Legend:
[1] = molecular target: T1, DDR1 (Homo sapiens, UniProt Q08345); experiment: LanthaScreen Europium Kinase Binding assay, DDR1; conditions: 5 nM DDR1, 20 nM Kinase Tracer 178, 1 h at rt; Ki from IC50 by Cheng-Prusoff; read-out: Ki DDR1
T1 construct: purchased Carna Biosciences
Procedure: (§1) DDR1 and DDR2 binding assays were performed using Life Technologies LanthaScreen™ Europium Kinase Binding assay. The compounds were incubated with 5 nM DDR1 (Carna Biosciences) or 5 nM DDR2 (Life Technologies) for 1 h at rt in white 384-well OptiPlate (PerkinElmer), containing 20 nM or 10 nM Kinase Tracer 178 respectively and 2 nM Europium labelled anti-GST antibody (Life Technologies) in assay buffer (50 mM HEPES pH 7.5, 10 mM MgCI2, 1 mM EGTA and 0.01% BRIJ35). The ratio of fluorescence emission 665 nm/615 nm after excitation at 340 nm was obtained using the Tecan Spark 20M plate reader. IC50 values were determined in GraphPad Prism 7.0 software, using 4 parameter model: log(inhibitor) vs. response. IC50 values were converted in Ki using the Cheng-Prusoff equation (Ki=IC50/(1+[Tracer]/Kd).

[2] = molecular target: T2, DDR2 (Homo sapiens, UniProt Q16832); experiment: LanthaScreen Europium Kinase Binding assay, DDR2; conditions: 5 nM DDR2, 10 nM Kinase Tracer 178, 1 h at rt; Ki from IC50 by Cheng-Prusoff; read-out: Ki DDR2
T2 construct: purchased Life Technologies
T2 sequence (Q16832 22-855): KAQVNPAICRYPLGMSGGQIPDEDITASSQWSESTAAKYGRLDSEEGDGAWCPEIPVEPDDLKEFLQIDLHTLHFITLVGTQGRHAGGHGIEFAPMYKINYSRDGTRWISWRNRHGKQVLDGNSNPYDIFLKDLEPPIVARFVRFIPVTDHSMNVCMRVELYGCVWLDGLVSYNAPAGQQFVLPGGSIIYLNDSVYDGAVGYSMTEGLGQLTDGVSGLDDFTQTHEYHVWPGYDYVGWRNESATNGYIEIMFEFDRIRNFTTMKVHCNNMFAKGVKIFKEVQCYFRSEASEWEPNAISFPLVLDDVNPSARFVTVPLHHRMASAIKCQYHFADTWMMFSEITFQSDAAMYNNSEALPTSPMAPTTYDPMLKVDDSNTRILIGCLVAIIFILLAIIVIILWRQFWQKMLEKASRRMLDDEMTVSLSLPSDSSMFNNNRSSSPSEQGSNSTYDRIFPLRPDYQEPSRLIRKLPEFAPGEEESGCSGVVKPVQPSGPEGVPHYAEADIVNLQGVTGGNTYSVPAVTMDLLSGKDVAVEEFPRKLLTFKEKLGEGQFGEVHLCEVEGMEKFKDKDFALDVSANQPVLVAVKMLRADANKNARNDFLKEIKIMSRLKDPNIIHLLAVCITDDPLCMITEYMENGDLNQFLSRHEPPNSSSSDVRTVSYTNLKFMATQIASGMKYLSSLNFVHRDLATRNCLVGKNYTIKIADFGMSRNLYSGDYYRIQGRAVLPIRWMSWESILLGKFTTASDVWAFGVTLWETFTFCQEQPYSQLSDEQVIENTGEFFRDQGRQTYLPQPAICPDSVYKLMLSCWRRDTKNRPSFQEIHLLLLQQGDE
Procedure: as §1

T1 sequence (Q08345 19-913): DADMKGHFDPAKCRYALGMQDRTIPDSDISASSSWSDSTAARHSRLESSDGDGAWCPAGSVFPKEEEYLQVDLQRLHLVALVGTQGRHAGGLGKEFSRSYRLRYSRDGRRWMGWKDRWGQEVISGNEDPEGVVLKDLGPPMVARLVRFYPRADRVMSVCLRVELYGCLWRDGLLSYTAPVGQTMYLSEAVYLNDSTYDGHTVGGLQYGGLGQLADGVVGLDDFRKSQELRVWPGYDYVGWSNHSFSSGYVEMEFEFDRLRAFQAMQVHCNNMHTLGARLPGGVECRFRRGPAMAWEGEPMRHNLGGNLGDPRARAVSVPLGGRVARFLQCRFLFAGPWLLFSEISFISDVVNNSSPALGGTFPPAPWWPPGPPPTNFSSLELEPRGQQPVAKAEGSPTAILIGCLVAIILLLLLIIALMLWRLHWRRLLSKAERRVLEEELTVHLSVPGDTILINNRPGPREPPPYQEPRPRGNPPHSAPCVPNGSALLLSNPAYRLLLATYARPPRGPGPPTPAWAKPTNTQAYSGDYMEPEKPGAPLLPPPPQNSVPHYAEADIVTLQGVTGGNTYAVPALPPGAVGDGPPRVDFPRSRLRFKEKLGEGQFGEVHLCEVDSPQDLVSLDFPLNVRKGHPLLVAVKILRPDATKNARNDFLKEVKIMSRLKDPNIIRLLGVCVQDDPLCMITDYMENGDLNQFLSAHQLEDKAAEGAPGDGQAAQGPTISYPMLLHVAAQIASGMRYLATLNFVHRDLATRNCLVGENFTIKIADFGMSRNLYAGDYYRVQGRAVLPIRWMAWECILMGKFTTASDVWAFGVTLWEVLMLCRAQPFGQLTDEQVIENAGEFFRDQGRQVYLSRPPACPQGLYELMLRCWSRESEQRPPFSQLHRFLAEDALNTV

Ki [1] [nM]	Ki [2] [nM]	SMILES
< 5	< 5	Cc1ccc(C(=O)Nc2cncc(C(F)(F)F)c2)cc1[C@@H]1CCN(c2cnc3cnccn23)C1 [Example 37, (S)-3-(1-(imidazo[1,2-a]pyrazin-3-yl)pyrrolidin-3-yl)-4-methyl-N-(5-(trifluoromethyl)pyridin-3-yl)benzamide]
< 5	< 5	Cc1ccc(C(=O)Nc2cncc(C(F)(F)F)c2)cc1[C@@H]1CCN(c2cncc(C(=O)NC3COC3)c2)C1 [Example 38, (S)-5-(3-(2-methyl-5-((5-(trifluoromethyl)pyridin-3-yl)carbamoyl)phenyl)pyrrolidin-1-yl)-N-(oxetan-3-yl)nicotinamide]
< 5	< 5	Cc1ccc(C(=O)Nc2cncc(C(F)(F)F)c2)cc1[C@@H]1CCN(c2cncc(C(=O)N[C@H]3C[C@@H](O)C3)c2)C1 [Example 39, N-((1s,3R)-3-hydroxycyclobutyl)-5-((S)-3-(2-methyl-5-((5-(trifluoromethyl)pyridin-3-yl)carbamoyl)phenyl)pyrrolidin-1-yl)nicotinamide]
< 5	5 to 25	Cc1ccc(C(=O)Nc2cncc(C(F)(F)F)c2)cc1[C@@H]1CCN(c2cncc(C(=O)N3CCN(C)CC3)c2)C1 [Example 40, (S)-4-methyl-3-(1-(5-(4-methylpiperazine-1-carbonyl)pyridin-3-yl)pyrrolidin-3-yl)-N-(5-(trifluoromethyl)pyridin-3-yl)benzamide]
< 5	25 to 100	Cc1ccc(C(=O)Nc2cncc(C(F)(F)F)c2)cc1[C@@H]1CCN(c2cnccc2C(=O)NC2COC2)C1 [Example 41, (S)-3-(3-(2-methyl-5-((5-(trifluoromethyl)pyridin-3-yl)carbamoyl)phenyl)pyrrolidin-1-yl)-N-(oxetan-3-yl)isonicotinamide]
< 5	< 5	Cc1ccc(C(=O)Nc2cncc(C(F)(F)F)c2)cc1[C@@H]1CCN(c2cccnc2N)C1 [Example 42, (S)-3-(1-(2-aminopyridin-3-yl)pyrrolidin-3-yl)-4-methyl-N-(5-(trifluoromethyl)pyridin-3-yl)benzamide]
< 5	< 5	Cc1ccc(C(=O)Nc2cncc(C(F)(F)F)c2)cc1[C@@H]1CCN(c2cnc3[nH]ncc3c2)C1 [Example 43, 4-methyl-3-[(3S)-1-(1H-pyrazolo[3,4-b]pyridin-5-yl)pyrrolidin-3-yl]-N-[5-(trifluoromethyl)-3-pyridyl]benzamide]
5 to 25	25 to 100	Cc1ccc(C(=O)Nc2cncc(C(F)(F)F)c2)cc1N1CC(Oc2ccc(N)nc2)C1 [Example 44, 3-(3-((6-aminopyridin-3-yl)oxy)azetidin-1-yl)-4-methyl-N-(5-(trifluoromethyl)pyridin-3-yl)benzamide]
< 5	5 to 25	CC(=O)Nc1ccc(OC2CN(c3cc(C(=O)Nc4cncc(C(F)(F)F)c4)ccc3C)C2)cn1 [Example 45, 3-(3-((6-acetamidopyridin-3-yl)oxy)azetidin-1-yl)-4-methyl-N-(5-(trifluoromethyl)pyridin-3-yl)benzamide]
5 to 25	25 to 100	COCC(=O)Nc1ccc(OC2CN(c3cc(C(=O)Nc4cncc(C(F)(F)F)c4)ccc3C)C2)cn1 [Example 46, 3-(3-((6-(2-methoxyacetamido)pyridin-3-yl)oxy)azetidin-1-yl)-4-methyl-N-(5-(trifluoromethyl)pyridin-3-yl)benzamide]
5 to 25	5 to 25	Cc1ccc(C(=O)Nc2cncc(C(F)(F)F)c2)cc1N1CC(Oc2cncc(N)c2)C1 [Example 47, 3-(3-((5-aminopyridin-3-yl)oxy)azetidin-1-yl)-4-methyl-N-(5-(trifluoromethyl)pyridin-3-yl)benzamide]
< 5	< 5	Cc1ccc(C(=O)Nc2cc(OC(F)F)ccn2)cc1[C@@H]1CCN(c2cncc(C(N)=O)n2)C1 [Example 51, (S)-6-(3-(5-((4-(difluoromethoxy)pyridin-2-yl)carbamoyl)-2-methylphenyl)pyrrolidin-1-yl)pyrazine-2-carboxamide]
< 5	5 to 25	Cc1ccc(C(=O)Nc2cc(C(C)(C)C)n(C)n2)cc1[C@@H]1CCN(c2ccnc(C(N)=O)c2)C1 [Example 52, (S)-4-(3-(5-((5-(tert-butyl)-1-methyl-1H-pyrazol-3-yl)carbamoyl)-2-methylphenyl)pyrrolidin-1-yl)picolinamide]
< 5	5 to 25	Cc1ccc(C(=O)Nc2cc(CN(C)C)nc(C(F)(F)F)c2)cc1[C@@H]1CCN(c2ccnc(C(N)=O)c2)C1 [Example 53, (S)-4-(3-(5-((2-((dimethylamino)methyl)-6-(trifluoromethyl)pyridin-4-yl)carbamoyl)-2-methylphenyl)pyrrolidin-1-yl)picolinamide]
< 5	< 5	Cc1ccc(C(=O)Nc2cncc(C(F)(F)F)c2)cc1[C@@H]1CCN(c2cc(C(N)=O)ncn2)C1 [Example 54, (S)-6-(3-(2-methyl-5-((5-(trifluoromethyl)pyridin-3-yl)carbamoyl)phenyl)pyrrolidin-1-yl)pyrimidine-4-carboxamide]
< 5	< 5	Cc1ccc(C(=O)Nc2cc(C(C)(C)C(F)(F)F)on2)cc1[C@@H]1CCN(c2cnccc2C#N)C1 [Example 55, (S)-3-(1-(4-cyanopyridin-3-yl)pyrrolidin-3-yl)-4-methyl-N-(5-(1,1,1-trifluoro-2-methylpropan-2-yl)isoxazol-3-yl)benzamide]
< 5	< 5	CCc1cc(NC(=O)c2ccc(C)c([C@@H]3CCN(c4cnccc4C#N)C3)c2)no1 [Example 56, (S)-3-(1-(4-cyanopyridin-3-yl)pyrrolidin-3-yl)-N-(5-ethylisoxazol-3-yl)-4-methylbenzamide]
< 5	5 to 25	Cc1ccc(C(=O)Nc2cc(OC(F)(F)F)ccn2)cc1[C@@H]1CCN(c2ccnc(C(N)=O)c2)C1 [Example 57, (S)-4-(3-(2-methyl-5-((4-(trifluoromethoxy)pyridin-2-yl)carbamoyl)phenyl)pyrrolidin-1-yl)picolinamide]
< 5	< 5	Cc1ccc(C(=O)Nc2cc(C(C)(C)C(F)(F)F)on2)cc1[C@@H]1CCN(c2cnccn2)C1 [Example 58, (S)-4-methyl-3-(1-(pyrazin-2-yl)pyrrolidin-3-yl)-N-(5-(1,1,1-trifluoro-2-methylpropan-2-yl)isoxazol-3-yl)benzamide]
< 5	5 to 25	Cc1ccc(C(=O)Nc2cc(C3CC3)nn2C)cc1[C@@H]1CCN(c2cncc(-c3cnn(C)c3)c2)C1 [Example 59, (S)-N-(3-cyclopropyl-1-methyl-1H-pyrazol-5-yl)-4-methyl-3-(1-(5-(1-methyl-1H-pyrazol-4-yl)pyridin-3-yl)pyrrolidin-3-yl)benzamide]
< 5	< 5	Cc1ccc(C(=O)Nc2cc(C(C)(C)C(F)(F)F)on2)cc1[C@H]1CCN(c2cncc(-c3cnn(C)c3)c2)C1 [Example 60, (R)-4-methyl-3-(1-(5-(1-methyl-1H-pyrazol-4-yl)pyridin-3-yl)pyrrolidin-3-yl)-N-(5-(1,1,1-trifluoro-2-methylpropan-2-yl)isoxazol-3-yl)benzamide]
< 5	5 to 25	Cc1ccc(C(=O)Nc2cncc(C(F)(F)F)c2)cc1[C@@H]1CCN(c2ncnc3cc(C(=O)N4CCOCC4)sc23)C1 [Example 61, (S)-4-methyl-3-(1-(6-(morpholine-4-carbonyl)thieno[3,2-d]pyrimidin-4-yl)pyrrolidin-3-yl)-N-(5-(trifluoromethyl)pyridin-3-yl)benzamide]
< 5	< 5	Cc1ccc(C(=O)Nc2cncc(C(F)(F)F)c2)cc1[C@@H]1CCN(c2ccnc(C(N)=O)c2)C1 [Example 63, (S)-4-(3-(2-methyl-5-((5-(trifluoromethyl)pyridin-3-yl)carbamoyl)phenyl)pyrrolidin-1-yl)picolinamide]
< 5	5 to 25	COc1ccc(C(=O)Nc2cncc(C(F)(F)F)c2)cc1C1CCN(c2ccnc(C(N)=O)c2)C1 (stereo not drawn) [Example 64, 4-(3-(2-methoxy-5-((5-(trifluoromethyl)pyridin-3-yl)carbamoyl)phenyl)pyrrolidin-1-yl)picolinamide]

From patent US20260242353A1, “HETEROARYL DERIVATIVES AS DDRs INHIBITORS” (CHIESI FARMACEUTICI S.P.A., priority 2022, published 2026)
